In patent publication US20230263944A1, “DUAL FUNCTION SURFACE FOR CELL CAPTURE AND SPREADING” (THE ROYAL INSTITUTION FOR THE ADVANCEMENT OF …, priority 2020, published 2023):

What was measured:
HUVEC cells = experiment: HUVEC seeding on Protein G / anti-CD144 / RGD-TAMRA polystyrene well plate; type: cell-based, human; conditions: 3 h shaker incubation; for HUVEC attachment to the surface: serum free medium
Description: A 6 well plate was seeded with the following conditions in each well (W1-W6):
The functionalized surface was rinsed with phosphate buffer saline (PBS) and […]. HUVEC cells were used and were seeded in each well in serum free medium at a concentration of 19,000 cells/mL. The plate was incubated for 3 hours on an incubation shaker then imaged under the microscope. The plate were left to incubate for another 21 h (total 24 h) at 37° C. 5% CO2 and imaged again.

[1] = tested on: endothelial colony forming cells (ECFCs); experiment: ECFC seeding on modified polystyrene surfaces under static conditions; type: cell-based, human; conditions: vs unmodified aminated polystyrene surfaces
Description: Cells were stained for F-actin (red) and DAPI (blue). Images were used to quantify cell number and surface area per cell. Unmodified=aminated polystyrene surfaces without further modifications. **p<0.01, *p<0.05 with N=3 experimental replicas.
To test whether the bifunctional surfaces can impart two significant effects on cells of interests, ECFCs derived from human peripheral blood were either seeded on the modified surfaces under static conditions or flown over the surfaces in a perfusion loop under 1 dyn/cm^2 wall shear stress. […] The two molecules were mixed together at the center point concentrations of the previously described surface model.

ECFCs = experiment: Surface endothelialization of functionalized CoCr vascular stents in a perfusion model; type: cell-based, human; conditions: flow
Description: (A) Representative fluorescence images of ECFCs on the surface of modified stents (after plasma amination) and an unmodified control after 2 and half hours of circulating ECFCs over the stents in a perfusion model at 1 dyn/cm^2 wall shear stress. ECFCs were stained for F-actin (red) and nuclei (blue). Phase contrast images show the corresponding stent structure. Flow direction was from right to left. (B) Quantification of cell adhesion parameters from the fluorescence images. *P<0.05 and **P<0.01 with N=3 experimental replicas from different ECFC donors.
As encompassed herein, the modifications can be applied to different aminated substrates—as shown on polystyrene (FIGS. 4-13) and on cobalt-chromium (CoCr) (FIGS. 16-18). The modifications can be applied to different geometries while retaining the benefits observed on flat substrates.

[2] = ELISA of functionalized CoCr surfaces after gamma-irradiation; type: physicochemical; conditions: two one-side t-test, 15% difference considered practically equivalent
Description: (A) Principle of the ELISA method used to detect immobilized antibodies via horseradish peroxidase (HRP) conjugated secondary antibodies. (B) ELISA method used to detect immobilized RGD-TAMRA peptides via primary anti rhodamine antibodies followed by HRP conjugated secondary antibodies.

[3] = ELISA on L605 CoCr substrates modified with peptides and antibodies; conditions: dark, ambient conditions, covalent peptide grafting vs adsorption
Description: (A) Without S-SMPB, peptides adsorb onto L605 which can change antibody orientation on surfaces. (B) 12-well plate with CoCr samples at the end of the ELISA. For custom ELISAs, RGD-TAMRA was detected using anti Rhodamine followed by HRP-labelled secondary antibodies. Anti CD309 was detected using an HRP-labelled F(ab′)2 secondary antibody on a separate set of samples. HRP activity was quantified by measuring A450 of supernatant collected after 30 min incubation with TMB substrate+addition of stop solution. […] N=3 L605 samples except G-I (N=9 images).

Substance	HUVEC attachment to the surface (HUVEC cells)	surface area of the ECFCs (cell spreading) [1]	surface area of the ECFCs (cell spreading) ([1]; listed as RGD peptides)	cell spreading on CoCr stents (ECFCs)	ELISA signal after gamma-irradiation [2]	ELISA signal after 28d storage [3]	HUVEC spreading (HUVEC cells)
CGK(PEG3-TAMRA)GGRGDS-NH2 [RGD-TAMRA]	strongly attach	significantly higher than the controls	increase cell spreading	higher cell spreading	practically equivalent	significantly higher	–
collagen	strongly attach	–	–	–	–	–	spread more
